Assay results as given in patent publication US11866483B2, “Fibrosis-inhibiting composition, cells producing same, and cell sheet comprising said cells” (KanonCure, Inc., priority 2018, dated 2024).

Experiments:
MMP-13 (active form) = test: Western blotting of culture supernatant of UE7T-13 cells, MMP-13; assay type: cell-based; settings: 15 μM IC-2, UE7T-13 cells, culture supernatant Day 9, vs 0.1% DMSO
Experimental: (§1) The number of the culture dishes prepared was 6.
(§2) The culture medium was exchanged in the same manner as Day 0. […] That is, the cells of chemical-untreated group, of which culture medium was collected for MSC, were seeded on 3 culture dishes with a diameter of 10 cm.
(§3) (2) A 12 ml aliquot of the supernatant was transferred to an Amicon Ultra-15 Centrifugal Filter Unit and was centrifuged at 5,000 g for 60 to 90 min.
(§4) (3) The absorbance of the enriched culture supernatant (secretome) was measured using a NanoDrop at 280 nm and the protein level was assayed. The blank culture medium and 2× modified RIPA buffer were added to adjust the protein concentration to 1.0 μg/μl. Then, a sonicator (BioRuptur manufactured by COSMO BIO, Tokyo, Japan) was used to perform the total 1 min and 4 cycles of sonication, each cycle including sonication at 200 W for 15 sec and a pause for 30 sec in ice bath. Then, 5×SDS sample buffer was added to adjust the protein concentration to 0.8 μg/μl. Finally, a block incubator (IKA, Staufen, Germany) was used for heat denaturing at 98° C. for 5 min. […]
(§5) After completion of the primary antibody reaction, the membranes were washed in a suitable volume of TBS-T for 10 min 3 times. […] After that, 1 ml of ECL Prime liquid (GE Healthcare Life Sciences) was applied to each membrane of which chemiluminescence was detected with a LAS-4000 (Fujifilm Corporation, Tokyo, Japan).

MMP-14 = test: Western blotting of culture supernatant of UE7T-13 cells, MMP-14; assay type: cell-based; settings: 15 μM IC-2, UE7T-13 cells, culture supernatant Day 9, vs 0.1% DMSO
Experimental: as §1, §2, §3, §4, §5

thioredoxin (TRX) = settings: 15 μM IC-2, UE7T-13 cells, culture supernatant Day 9
Experimental: Expression and production of MMP family members and TRX in cultured cells or the secreted products of those cells were determined by Western blotting and ELISA.
Cells: bone marrow-derived mesenchymal stem cell line, UE7T-13 cells.
UE7T-13 cells were seeded on each culture dish with a diameter of 10 cm such that the cell count in each dish was 9.0×10^3 cells/cm^2. The number of the culture dishes prepared was 6.
Cells in the remaining 3 culture dishes were treated with DMSO as control. Specifically, DMSO was added by completely exchanging the culture medium with DMEM/10% FBS containing DMSO at the final concentration of 0.1%.
For the DMSO treatment control, the culture medium was completely exchanged with DMEM/0.05% FBS containing DMSO at the final concentration of 0.1%. For the MSC group, the culture medium was completely exchanged with DMEM/0.05% FBS.
(1) A 5 ml aliquot of culture medium was collected from the culture dishes and these aliquots were combined in one tube for each group. […]
The aliquots of culture supernatants collected at Day 9 for ELISA assay were used to determine the production of thioredoxin by ELISA. […] The absorbance at 450 nm was measured using a microplate reader (Tecan Group Ltd). The content of thioredoxin in the culture supernatants was calculated from the absorbance using the calibration curve.

MMP-2 = test: Western blotting of culture supernatant of UE7T-13 cells, MMP-2; assay type: cell-based; settings: 15 μM IC-2, UE7T-13 cells, culture supernatant Day 9, vs 0.1% DMSO
Experimental: as §1, §2, §3, §4, §5

MMP-1 = test: Western blotting of culture supernatant of UE7T-13 cells, MMP-1; assay type: cell-based; settings: 15 μM IC-2, UE7T-13 cells, culture supernatant Day 9, vs 0.1% DMSO
Experimental: as §1, §2, §3, §4, §5

O=C1[C@H](c2ccccc2)N2C(=O)CCN(C(=O)NCc3ccccc3)[C@H]2CN1Cc1cccc2ccccc12 [IC-2, (6S, 9aS)-6-phenyl-8-naphthalen-1-ylmethyl-4,7-dioxo-hexahydro-pyrazino[1,2-a] pyrimidine-1-carbocylic acid benzylamide]
MMP-13 (active form) increase as compared to DMSO control group (chemiluminescence band intensity) (MMP-13 (active form)): about 5.1 fold | MMP-14 increase as compared to DMSO control group (chemiluminescence band intensity) (MMP-14): about 2.1 fold | production of thioredoxin, increase (ELISA) (thioredoxin (TRX)): 1.5 fold | MMP-2 increase as compared to DMSO control group (chemiluminescence band intensity) (MMP-2): about 1.5 fold | MMP-1 increase as compared to DMSO control group (chemiluminescence band intensity) (MMP-1): about 4.1 fold
